What is called pKi is the Ki on a negative log10 scale, so that one unit is a factor of ten.

Each structure is given as a SMILES string. pKi: −log10 of the molar value.

Experimental findings from patent US10093683B2, “Factor XIa inhibitors” (Merck Sharp & Dohme Corp., priority 2014, dated 2018) are described below.

In one assay the target is human Factor XIa (Homo sapiens (Human), UniProt P03951). Put plainly: Factor XIa Assay. The class given is biochemical. The note with it: purified human Factor XIa 40 pM, Z-Gly-Pro-Arg-AFC 100 μM, pH 7.4; read-out: FXIa Ki. A digest of the protocol:
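Purified human FXIa (40 pM final) hydrolysing fluorogenic Z-Gly-Pro-Arg-AFC (100 μM) in 50 mM HEPES pH 7.4, 150 mM NaCl, 5 mM CaCl2, 0.1% PEG 8000, at room temperature or 37° C. Initial velocities measured after enzyme–inhibitor equilibration; Ki from Vo/Vi versus [I], assuming competitive inhibition.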

Another assay has as its target Human plasma kallikrein (Homo sapiens (Human), UniProt P03952). Put plainly: Kallikrein Assay. The assay is classed as biochemical. Particulars: purified Human plasma kallikrein 0.5 nM, Acetyl-K-P-R-AFC, pH 7.4; Ki from IC50 by Cheng Prusoff. On the procedure:
The effectiveness of a compound of the present invention as an inhibitor of Kallikrein can be determined using a relevant purified serine protease, and an appropriate synthetic substrate. The rate of hydrolysis of the chromogenic or fluorogenic substrate by the relevant serine protease was measured both in the absence and presence of compounds of the present invention. Assays were conducted at room temperature or at 37° C. […] A decrease in the rate of fluorescence change in the presence of inhibitor is indicative of enzyme inhibition. Such methods are known to one skilled in the art. The results of this assay are expressed as the inhibitory constant, Ki.
Kallikrein determinations were made in 50 mM HEPES buffer at pH 7.4 containing 150 mM NaCl, 5 mM CaCl2, and 0.1% PEG 8000 (polyethylene glycol; Fisher Scientific). Determinations were made using purified Human plasma kallikrein at a final concentration of 0.5 nM (Enzyme Research Laboratories) and the synthetic substrate, Acetyl-K-P-R-AFC (Sigma #C6608) at a concentration of […].
Times required to achieve equilibration between enzyme and inhibitor were determined in control experiments. The reactions were performed under linear progress curve conditions and fluorescence increase measured at 405 Ex/510 Em nm. […] IC50 was determined by inflection point from a four parameter logistic curve fit. Ki was calculated using the Cheng Prusoff equation, Ki=IC50/(1+([S]/Km)).

Human plasma kallikrein, sequence (P03952 391-638): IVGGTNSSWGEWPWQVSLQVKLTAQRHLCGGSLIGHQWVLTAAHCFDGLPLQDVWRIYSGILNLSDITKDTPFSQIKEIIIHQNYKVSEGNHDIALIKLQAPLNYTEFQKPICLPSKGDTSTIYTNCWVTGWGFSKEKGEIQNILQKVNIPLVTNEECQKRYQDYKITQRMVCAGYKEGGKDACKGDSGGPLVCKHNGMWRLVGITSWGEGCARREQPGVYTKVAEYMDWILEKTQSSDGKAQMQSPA
Human plasma kallikrein, sequence (P03952 20-390 partner): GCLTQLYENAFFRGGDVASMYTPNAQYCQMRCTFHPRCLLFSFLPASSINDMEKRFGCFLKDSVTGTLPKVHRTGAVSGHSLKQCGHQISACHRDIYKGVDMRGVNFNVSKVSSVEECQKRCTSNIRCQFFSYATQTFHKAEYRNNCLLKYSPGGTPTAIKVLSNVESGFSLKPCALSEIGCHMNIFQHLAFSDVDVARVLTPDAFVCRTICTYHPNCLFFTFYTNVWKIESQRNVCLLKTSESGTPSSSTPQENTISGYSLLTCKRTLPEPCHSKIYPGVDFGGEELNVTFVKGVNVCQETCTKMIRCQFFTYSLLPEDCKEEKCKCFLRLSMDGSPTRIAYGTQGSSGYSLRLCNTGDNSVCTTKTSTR
human Factor XIa, sequence (P03951 388-625): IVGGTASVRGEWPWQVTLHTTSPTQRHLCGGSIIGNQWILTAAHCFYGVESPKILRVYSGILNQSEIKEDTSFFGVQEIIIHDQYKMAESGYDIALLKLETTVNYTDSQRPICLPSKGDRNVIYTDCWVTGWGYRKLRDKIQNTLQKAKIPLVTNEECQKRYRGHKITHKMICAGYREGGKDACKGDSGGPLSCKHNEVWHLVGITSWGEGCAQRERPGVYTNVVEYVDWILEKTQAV
human Factor XIa, sequence (P03951 19-387 partner): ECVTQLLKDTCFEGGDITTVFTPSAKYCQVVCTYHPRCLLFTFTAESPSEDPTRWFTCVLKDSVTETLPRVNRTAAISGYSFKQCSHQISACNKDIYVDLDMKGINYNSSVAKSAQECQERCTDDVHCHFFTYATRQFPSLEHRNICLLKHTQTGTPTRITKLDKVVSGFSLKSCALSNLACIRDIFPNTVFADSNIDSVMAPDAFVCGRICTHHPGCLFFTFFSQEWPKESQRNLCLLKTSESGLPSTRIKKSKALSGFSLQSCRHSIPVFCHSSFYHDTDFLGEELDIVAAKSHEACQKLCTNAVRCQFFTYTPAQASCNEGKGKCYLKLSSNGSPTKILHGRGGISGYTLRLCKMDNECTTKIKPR

Turning to `COC(=O)Nc1ccc(C(=O)N[C@@H](CC2CC2(F)F)C(=O)N2CCC[C@@]3(C2)OC(=O)Nc2ccc(Cl)c(F)c23)cc1` (single isomer, unassigned) [Example 67A], the pKi at human Factor XIa was 7.94; on Human plasma kallikrein it was 8.54.

Regarding `COC(=O)Nc1ccc(C(=O)N[C@@H](CC2CC2(F)F)C(=O)N2CCC[C@@]3(C2)OC(=O)Nc2ccc(Cl)c(F)c23)cc1` (single isomer, unassigned) [Example 67B], the pKi is 8.10 at human Factor XIa and 8.74 at Human plasma kallikrein.

Take `COC(=O)Nc1ccc(C(=O)NC(C[C@@H]2CCCO2)C(=O)N2CCC[C@@]3(C2)OC(=O)Nc2ccc(Cl)c(F)c23)cc1` (single isomer, unassigned) [Example 116A]: the pKi at human Factor XIa is 8.12; on Human plasma kallikrein it was 8.32.

For `COC(=O)Nc1ccc(C(=O)NC(C[C@H]2CCCO2)C(=O)N2CCC[C@@]3(C2)OC(=O)Nc2ccc(Cl)c(F)c23)cc1` (single isomer, unassigned) [Example 117A], the results for the pKi at human Factor XIa and on Human plasma kallikrein were 7.73 and 7.97, respectively.

In the case of `COC(=O)Nc1ccc(C(=O)N[C@@H](Cc2ccccc2)C(=O)N2CCC[C@@]3(C2)OC(=O)Nc2ccc(Cl)cc23)cc1` [Example 3b, methyl (4-(((S)-1-((R)-6-chloro-2-oxo-1,2-dihydrospiro[benzo[d][1,3]oxazine-4,3′-piperidin]-1′-yl)-1-oxo-3-phenylpropan-2-yl)carbamoyl)phenyl)carbamate], the results for the pKi at human Factor XIa and at Human plasma kallikrein were 8.82 and 8.81, respectively.

On to `COC(=O)Nc1ccc(C(=O)N[C@@H](Cc2ccccc2)C(=O)N2CC[C@@]3(C2)OC(=O)Nc2ccc(Cl)cc23)cc1` [Example 6, methyl (4-(((S)-1-((R)-6-chloro-2-oxo-1,2-dihydrospiro[benzo[d][1,3]oxazine-4,3′-pyrrolidin]-1′-yl)-1-oxo-3-phenylpropan-2-yl)carbamoyl)phenyl)carbamate], for which the pKi on human Factor XIa was 8.33; at Human plasma kallikrein, 8.40.

Turning to `COC(=O)Nc1ccc(C(=O)N[C@@H](Cc2ccccc2)C(=O)N2CC[C@@]3(C2)OC(=O)Nc2ccc(Cl)c(F)c23)cc1` [Example 7, methyl (4-(((S)-1-((R)-6-chloro-5-fluoro-2-oxo-1,2-dihydrospiro[benzo[d][1,3]oxazine-4,3′-pyrrolidin]-1′-yl)-1-oxo-3-phenylpropan-2-yl)carbamoyl)phenyl)carbamate], the pKi was 8.35 at human Factor XIa and 8.45 at Human plasma kallikrein.

In the case of `COC(=O)Nc1ccc(C(=O)N[C@@H](CC2(OC)CC2)C(=O)N2CCC[C@@]3(C2)OC(=O)Nc2ccc(Cl)c(F)c23)cc1` [Example 115, methyl (4-(((S)-1-((R)-6-chloro-5-fluoro-2-oxo-1,2-dihydrospiro[benzo[d][1,3]oxazine-4,3′-piperidin]-1′-yl)-3-(1-methoxycyclopropyl)-1-oxopropan-2-yl)carbamoyl)phenyl)carbamate], on Human plasma kallikrein, the pKi is 9.22.

In turn, `COC(=O)Nc1ccc(C(=O)N[C@@H](C[C@H](C)OC)C(=O)N2CCC[C@@]3(C2)OC(=O)Nc2ccc(Cl)c(F)c23)cc1` [Example 118A, methyl (4-(((2S,4S)-1-((R)-6-chloro-5-fluoro-2-oxo-1,2-dihydrospiro[benzo[d][1,3]oxazine-4,3′-piperidin]-1′-yl)-4-methoxy-1-oxopentan-2-yl)carbamoyl)phenyl)carbamate] had a pKi on Human plasma kallikrein of 8.75.

As for `COC(=O)Nc1ccc(C(=O)N[C@@H](C[C@@H](C)OC)C(=O)N2CCC[C@@]3(C2)OC(=O)Nc2ccc(Cl)c(F)c23)cc1` [Example 118B, methyl (4-(((2S,4R)-1-((R)-6-chloro-5-fluoro-2-oxo-1,2-dihydrospiro[benzo[d][1,3]oxazine-4,3′-piperidin]-1′-yl)-4-methoxy-1-oxopentan-2-yl)carbamoyl)phenyl)carbamate], on Human plasma kallikrein, the pKi was 8.97.

`O=C(Nc1ccc(C(=O)N[C@@H](Cc2cccc(F)c2)C(=O)N2CCC[C@@]3(C2)OC(=O)Nc2ccc(Cl)c(F)c23)cc1)OCCP(=O)(O)O` [Example 271, (2-(((4-(((S)-1-((R)-6-chloro-5-fluoro-2-oxo-1,2-dihydrospiro[benzo[d][1,3]oxazine-4,3′-piperidin]-1′-yl)-3-(3-fluorophenyl)-1-oxopropan-2-yl)carbamoyl)phenyl)carbamoyl)oxy)ethyl)phosphonic acid] gave a pKi on Human plasma kallikrein of 9.22.

For the compound `O=C1COc2ccc(S(=O)(=O)N[C@@H](Cc3ccccc3)C(=O)N3CCC4(C3)OC(=O)Nc3ccc(Cl)cc34)cc2N1` (stereo partly drawn) [Example 282, N-((2S)-1-(6-chloro-2-oxo-1,2-dihydrospiro[benzo[d][1,3]oxazine-4,3′-pyrrolidin]-1′-yl)-1-oxo-3-phenylpropan-2-yl)-3-oxo-3,4-dihydro-2H-benzo[b][1,4]oxazine-6-sulfonamide], the pKi at human Factor XIa is at most 5.30.

With `O=C1Nc2ccc(Cl)cc2C2(CCN(C(=O)[C@H](Cc3ccccc3)NS(=O)(=O)c3ccc(C(=O)O)cc3)C2)O1` (stereo partly drawn) [Example 283, 4-(N-((2S)-1-(6-chloro-2-oxo-1,2-dihydrospiro[benzo[d][1,3]oxazine-4,3′-pyrrolidin]-1′-yl)-1-oxo-3-phenylpropan-2-yl)sulfamoyl)benzoic acid], the pKi on human Factor XIa was at most 5.30.

With `CC(=O)Nc1ccc(S(=O)(=O)N[C@@H](Cc2ccccc2)C(=O)N2CCC3(C2)OC(=O)Nc2ccc(Cl)cc23)cc1` (stereo partly drawn) [Example 284, N-(4-(N-((2S)-1-(6-chloro-2-oxo-1,2-dihydrospiro[benzo[d][1,3]oxazine-4,3′-pyrrolidin]-1′-yl)-1-oxo-3-phenylpropan-2-yl)sulfamoyl)phenyl)acetamide], the pKi on human Factor XIa was at most 5.30.

In the case of `O=C1Nc2ccc(Cl)cc2C2(CCN(C(=O)[C@H](Cc3ccccc3)NS(=O)(=O)c3ccc4oc(O)nc4c3)C2)O1` (stereo partly drawn) [Example 285, N-((2S)-1-(6-chloro-2-oxo-1,2-dihydrospiro[benzo[d][1,3]oxazine-4,3′-pyrrolidin]-1′-yl)-1-oxo-3-phenylpropan-2-yl)-2-hydroxybenzo[d]oxazole-5-sulfonamide], the pKi at human Factor XIa is at most 5.30.

For `CO[C@@H]1C[C@@H](C(=O)N2CC[C@@]3(C2)OC(=O)Nc2ccc(Cl)cc23)N(C(=O)c2ccc3nc(N)sc3c2)C1` [Example 290, (R)-1′-((2S,4R)-1-(2-aminobenzo[d]thiazole-6-carbonyl)-4-methoxypyrrolidine-2-carbonyl)-6-chlorospiro[benzo[d][1,3]oxazine-4,3′-pyrrolidin]-2(1H)-one], on human Factor XIa, the pKi is 5.62.

In the case of `Nc1nc2ccc(C(=O)N3C[C@H](F)C[C@H]3C(=O)N3CC[C@@]4(C3)OC(=O)Nc3ccc(Cl)cc34)cc2s1` [Example 291, (R)-1′-((2S,4R)-1-(2-aminobenzo[d]thiazole-6-carbonyl)-4-fluoropyrrolidine-2-carbonyl)-6-chlorospiro[benzo[d][1,3]oxazine-4,3′-pyrrolidin]-2(1H)-one], at human Factor XIa, the pKi is 5.34.

For `Nc1nc2ccc(C(=O)N3C[C@H](Cc4ccccc4)C[C@H]3C(=O)N3CC[C@@]4(C3)OC(=O)Nc3ccc(Cl)cc34)cc2s1` [Example 292, (R)-1′-((2S,4R)-1-(2-aminobenzo[d]thiazole-6-carbonyl)-4-benzylpyrrolidine-2-carbonyl)-6-chlorospiro[benzo[d][1,3]oxazine-4,3′-pyrrolidin]-2(1H)-one], the pKi at human Factor XIa was 5.73.

Consider `O=C1Nc2ccc(Cl)cc2[C@@]2(CCN(C(=O)[C@H](Cc3ccccc3)Nc3ncc(C(=O)O)cc3F)C2)O1` [Example 294, 6-(((S)-1-((R)-6-chloro-2-oxo-1,2-dihydrospiro[benzo[d][1,3]oxazine-4,3′-pyrrolidin]-1′-yl)-1-oxo-3-phenylpropan-2-yl)amino)-5-fluoronicotinic acid], for which the pKi on human Factor XIa is 5.00.

Consider `O=C1Nc2ccc(Cl)cc2[C@@]2(CCCN(C(=O)[C@H](Cc3ccccc3)Nc3ccc(-c4ccc(O)nc4)cn3)C2)O1` [Example 295, (R)-6-chloro-1′-((6′-hydroxy-[3,3′-bipyridin]-6-yl)-L-phenylalanyl)spiro[benzo[d][1,3]oxazine-4,3′-piperidin]-2(1H)-one], for which, at human Factor XIa, the pKi is 5.00.

`O=C1Nc2ccc(Cl)cc2[C@@]2(CCCN(C(=O)[C@H](Cc3ccccc3)Nc3ccc(-c4cc[nH]n4)cn3)C2)O1` [Example 296, (R)-1′-((5-(1H-pyrazol-3-yl)pyridin-2-yl)-L-phenylalanyl)-6-chlorospiro[benzo[d][1,3]oxazine-4,3′-piperidin]-2(1H)-one]: the pKi on human Factor XIa is 5.00.

`O=C1Nc2ccc(Cl)cc2[C@@]2(CCCN(C(=O)[C@H](Cc3ccccc3)Nc3ccc(-c4cccc(C(=O)O)c4)cn3)C2)O1` [Example 297, 3-(6-(((S)-1-((R)-6-chloro-2-oxo-1,2-dihydrospiro[benzo[d][1,3]oxazine-4,3′-piperidin]-1′-yl)-1-oxo-3-phenylpropan-2-yl)amino)pyridin-3-yl)benzoic acid]: the pKi at human Factor XIa was 5.00.
